Source: publication PMC12250302, “Synthesis, Antimicrobial Activities, and Model of Action of Novel Tetralone Derivatives Containing Aminoguanidinium Moiety” (International Journal of Molecular Sciences, 2025)
Values after ≈ are worked out from the molar mass of the structure shown.

Key:
Assay in all cases: MIC and MBC testing, broth microdilution
E. faecium ATCC 35667 = type: cell-based, Enterococcus faecium; conditions: Enterococcus faecium, ATCC35667, E. faecium ATCC 35667; for MIC: 18 h, read-out: MIC; for MBC: read-out: MBC
In short: (§1)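 Broth microdilution in MH broth, 2-fold compound series from DMSO stocks; inoculum from log-phase culture diluted to 1 × 10^6 CFU/mL prior to addition; 37 °C, 18 h.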

S. aureus ATCC 29213 = type: cell-based, Staphylococcus aureus; conditions: Staphylococcus aureus, ATCC29213, S. aureus ATCC 29213; for MIC: 18 h, read-out: MIC; for MBC: read-out: MBC
In short: as §1

[1] = test system: K. pneumoniae ATCC 700603; type: cell-based, Klebsiella pneumoniae; conditions: Klebsiella pneumoniae; for MIC: ATCC700603, 18 h, read-out: MIC; for MBC: ATCC700603, read-out: MBC
In short: as §1

A. baumannii ATCC 19606 = type: cell-based, Acinetobacter baumannii; conditions: Acinetobacter baumannii; for MIC: ATCC19606, 18 h, read-out: MIC; for MBC: ATCC19606, read-out: MBC
In short: as §1

P. aeruginosa ATCC 27853 = type: cell-based, Pseudomonas aeruginosa; conditions: Pseudomonas aeruginosa; for MIC: ATCC27853, 18 h, read-out: MIC; for MBC: ATCC27853, read-out: MBC
In short: as §1

E. coli ATCC 25922 = type: cell-based, Escherichia coli; conditions: Escherichia coli; for MIC: ATCC25922, 18 h, read-out: MIC; for MBC: ATCC25922, read-out: MBC
In short: as §1

MRSA-1 = type: cell-based, Staphylococcus aureus; conditions: Staphylococcus aureus, MRSA-1; for MIC: 18 h, read-out: MIC; for MBC: read-out: MBC
In short: (§2)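 MIC and MBC determined by broth microdilution with twofold compound dilutions (from DMSO stock) in MH broth. Log-phase inoculum at 1 × 10^6 CFU/mL; 18 h incubation at 37 °C.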

MRSA-2 = type: cell-based, Staphylococcus aureus; conditions: Staphylococcus aureus, MRSA-2; for MIC: 18 h, read-out: MIC; for MBC: read-out: MBC
In short: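 Triplicate broth microdilution: MH broth, serial 2× dilution of compounds dissolved in DMSO, 1 × 10^6 CFU/mL bacteria grown to log phase, 18 h at 37 °C, followed by MBC determination.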

[2] = test system: clinical S. aureus isolate LMY45; type: cell-based, Staphylococcus aureus; conditions: Staphylococcus aureus, LMY45; for MIC: 18 h, read-out: MIC; for MBC: read-out: MBC
In short: as §2

[3] = test system: clinical S. aureus isolate LMY46; type: cell-based, Staphylococcus aureus; conditions: Staphylococcus aureus, LMY46; for MIC: 18 h, read-out: MIC; for MBC: read-out: MBC
In short: as §2

[4] = test system: clinical S. aureus isolate LMY47; type: cell-based, Staphylococcus aureus; conditions: Staphylococcus aureus, LMY47; for MIC: 18 h, read-out: MIC; for MBC: read-out: MBC
In short: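 Strains grown to logarithmic phase were diluted to 1 × 10^6 CFU/mL, combined with compound two-fold dilution series in MH broth, and incubated at 37 °C for 18 h. MIC and MBC were then recorded, with triplicate wells per concentration.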

[5] = test system: clinical S. aureus isolate LMY48; type: cell-based, Staphylococcus aureus; conditions: Staphylococcus aureus, LMY48; for MIC: 18 h, read-out: MIC; for MBC: read-out: MBC
In short: as §2

SMILES | MIC (E. faecium ATCC 35667) | MIC (S. aureus ATCC 29213) | MIC [1] | MIC (A. baumannii ATCC 19606) | MIC (P. aeruginosa ATCC 27853) | MIC (E. coli ATCC 25922) | MIC (MRSA-1) | MIC (MRSA-2) | MIC [2] | MIC [3] | MIC [4] | MIC [5] | MBC (E. faecium ATCC 35667) | MBC (S. aureus ATCC 29213) | MBC (MRSA-1) | MBC (MRSA-2) | MBC [2] | MBC [3] | MBC [4] | MBC [5] | other results
[H]/N=C(\N)NN=C1CCCc2cc(OCc3cccc(C(F)(F)F)c3)ccc21 [Compound 1I, (E)-2-(6-((3-(trifluoromethyl)benzyl)oxy)-3,4-dihydronaphthalen-1(2H)-ylidene)hydrazine-1-carboximidamide] | 4 µg/mL (≈ 10.6 µM) | 2 µg/mL (≈ 5.31 µM) | 32 µg/mL (≈ 85 µM) | 8 µg/mL (≈ 21.3 µM) | 32 µg/mL (≈ 85 µM) | 4 µg/mL (≈ 10.6 µM) | 2 µg/mL (≈ 5.31 µM) | 2 µg/mL (≈ 5.31 µM) | 1 µg/mL (≈ 2.66 µM) | 2 µg/mL (≈ 5.31 µM) | 2 µg/mL (≈ 5.31 µM) | 2 µg/mL (≈ 5.31 µM) | 8 µg/mL (≈ 21.3 µM) | 16 µg/mL (≈ 42.5 µM) | 16 µg/mL (≈ 42.5 µM) | 4 µg/mL (≈ 10.6 µM) | 4 µg/mL (≈ 10.6 µM) | 4 µg/mL (≈ 10.6 µM) | 2 µg/mL (≈ 5.31 µM) | 2 µg/mL (≈ 5.31 µM) | MBC [1]: 32 µg/mL (≈ 85 µM); MBC (A. baumannii ATCC 19606): 8 µg/mL (≈ 21.3 µM); MBC (P. aeruginosa ATCC 27853): 32 µg/mL (≈ 85 µM); MBC (E. coli ATCC 25922): 4 µg/mL (≈ 10.6 µM)
[H]/N=C(\N)NN=C1CCCc2cc(OCCCCCCCCCCC)ccc21 [Compound 2H, (E)-2-(6-(undecyloxy)-3,4-dihydronaphthalen-1(2H)-ylidene)hydrazine-1-carboximidamide] | 4 µg/mL (≈ 10.7 µM) | > 32 µg/mL | > 32 µg/mL | > 32 µg/mL | > 32 µg/mL | > 32 µg/mL | 4 µg/mL (≈ 10.7 µM) | 4 µg/mL (≈ 10.7 µM) | 4 µg/mL (≈ 10.7 µM) | 2 µg/mL (≈ 5.37 µM) | 2 µg/mL (≈ 5.37 µM) | 4 µg/mL (≈ 10.7 µM) | 8 µg/mL (≈ 21.5 µM) | – | 16 µg/mL (≈ 42.9 µM) | 16 µg/mL (≈ 42.9 µM) | 8 µg/mL (≈ 21.5 µM) | 16 µg/mL (≈ 42.9 µM) | 16 µg/mL (≈ 42.9 µM) | 4 µg/mL (≈ 10.7 µM) | –
[H]/N=C(\N)NN=C1CCCc2cc(OCc3ccc(F)cc3Cl)ccc21 [Compound 1T, (E)-2-(6-((2-chloro-4-fluorobenzyl)oxy)-3,4-dihydronaphthalen-1(2H)-ylidene)hydrazine-1-carboximidamide] | 2 µg/mL (≈ 5.54 µM) | 2 µg/mL (≈ 5.54 µM) | > 32 µg/mL | 16 µg/mL (≈ 44.3 µM) | > 32 µg/mL | 8 µg/mL (≈ 22.2 µM) | 1 µg/mL (≈ 2.77 µM) | 2 µg/mL (≈ 5.54 µM) | 1 µg/mL (≈ 2.77 µM) | 1 µg/mL (≈ 2.77 µM) | 1 µg/mL (≈ 2.77 µM) | 4 µg/mL (≈ 11.1 µM) | 16 µg/mL (≈ 44.3 µM) | 32 µg/mL (≈ 88.7 µM) | 8 µg/mL (≈ 22.2 µM) | 8 µg/mL (≈ 22.2 µM) | 4 µg/mL (≈ 11.1 µM) | 4 µg/mL (≈ 11.1 µM) | 4 µg/mL (≈ 11.1 µM) | 4 µg/mL (≈ 11.1 µM) | MBC (A. baumannii ATCC 19606): 32 µg/mL (≈ 88.7 µM); MBC (E. coli ATCC 25922): > 32 µg/mL
[H]/N=C(\N)NN=C1CCCc2cc(OCc3ccccc3F)ccc21 [Compound 1A, (E)-2-(6-((2-fluorobenzyl)oxy)-3,4-dihydronaphthalen-1(2H)-ylidene)hydrazine-1-carboximidamide] | 4 µg/mL (≈ 12.3 µM) | 4 µg/mL (≈ 12.3 µM) | 16 µg/mL (≈ 49 µM) | 8 µg/mL (≈ 24.5 µM) | 32 µg/mL (≈ 98 µM) | 8 µg/mL (≈ 24.5 µM) | 2 µg/mL (≈ 6.13 µM) | 2 µg/mL (≈ 6.13 µM) | 2 µg/mL (≈ 6.13 µM) | 2 µg/mL (≈ 6.13 µM) | 2 µg/mL (≈ 6.13 µM) | 2 µg/mL (≈ 6.13 µM) | 16 µg/mL (≈ 49 µM) | 16 µg/mL (≈ 49 µM) | 16 µg/mL (≈ 49 µM) | 8 µg/mL (≈ 24.5 µM) | 4 µg/mL (≈ 12.3 µM) | 8 µg/mL (≈ 24.5 µM) | 8 µg/mL (≈ 24.5 µM) | 4 µg/mL (≈ 12.3 µM) | MBC [1]: 16 µg/mL (≈ 49 µM); MBC (A. baumannii ATCC 19606): 16 µg/mL (≈ 49 µM); MBC (P. aeruginosa ATCC 27853): > 32 µg/mL; MBC (E. coli ATCC 25922): 8 µg/mL (≈ 24.5 µM)

The next lines start with results.

MIC (E. faecium ATCC 35667) | MIC (S. aureus ATCC 29213) | MIC [1] | MIC (A. baumannii ATCC 19606) | MIC (P. aeruginosa ATCC 27853) | MIC (E. coli ATCC 25922) | MIC (MRSA-1) | MIC (MRSA-2) | MIC [2] | MIC [3] | MIC [4] | MIC [5] | SMILES | MBC (E. faecium ATCC 35667) | MBC (S. aureus ATCC 29213) | MBC (MRSA-1) | MBC (MRSA-2) | MBC [2] | MBC [3] | MBC [4] | MBC [5] | other results
2 µg/mL (≈ 5.16 µM) | 4 µg/mL (≈ 10.3 µM) | 32 µg/mL (≈ 82.6 µM) | 8 µg/mL (≈ 20.7 µM) | > 32 µg/mL | 4 µg/mL (≈ 10.3 µM) | 1 µg/mL (≈ 2.58 µM) | 2 µg/mL (≈ 5.16 µM) | 2 µg/mL (≈ 5.16 µM) | 2 µg/mL (≈ 5.16 µM) | ≤ 1 µg/mL | 2 µg/mL (≈ 5.16 µM) | [H]/N=C(\N)NN=C1CCCc2cc(OCc3ccccc3Br)ccc21 [Compound 1Q, (E)-2-(6-((2-bromobenzyl)oxy)-3,4-dihydronaphthalen-1(2H)-ylidene)hydrazine-1-carboximidamide] | 8 µg/mL (≈ 20.7 µM) | 8 µg/mL (≈ 20.7 µM) | 8 µg/mL (≈ 20.7 µM) | 8 µg/mL (≈ 20.7 µM) | 4 µg/mL (≈ 10.3 µM) | 4 µg/mL (≈ 10.3 µM) | 4 µg/mL (≈ 10.3 µM) | 2 µg/mL (≈ 5.16 µM) | MBC [1]: 32 µg/mL (≈ 82.6 µM); MBC (A. baumannii ATCC 19606): 8 µg/mL (≈ 20.7 µM); MBC (E. coli ATCC 25922): 4 µg/mL (≈ 10.3 µM)
2 µg/mL (≈ 5.16 µM) | 2 µg/mL (≈ 5.16 µM) | 8 µg/mL (≈ 20.7 µM) | 4 µg/mL (≈ 10.3 µM) | > 32 µg/mL | 8 µg/mL (≈ 20.7 µM) | 2 µg/mL (≈ 5.16 µM) | 2 µg/mL (≈ 5.16 µM) | 2 µg/mL (≈ 5.16 µM) | 2 µg/mL (≈ 5.16 µM) | 2 µg/mL (≈ 5.16 µM) | 2 µg/mL (≈ 5.16 µM) | [H]/N=C(\N)NN=C1CCCc2cc(OCc3cccc(Br)c3)ccc21 [Compound 1R, (E)-2-(6-((3-bromobenzyl)oxy)-3,4-dihydronaphthalen-1(2H)-ylidene)hydrazine-1-carboximidamide] | 8 µg/mL (≈ 20.7 µM) | 16 µg/mL (≈ 41.3 µM) | 16 µg/mL (≈ 41.3 µM) | 4 µg/mL (≈ 10.3 µM) | 4 µg/mL (≈ 10.3 µM) | 4 µg/mL (≈ 10.3 µM) | 8 µg/mL (≈ 20.7 µM) | 16 µg/mL (≈ 41.3 µM) | MBC [1]: 8 µg/mL (≈ 20.7 µM); MBC (A. baumannii ATCC 19606): 4 µg/mL (≈ 10.3 µM); MBC (E. coli ATCC 25922): 8 µg/mL (≈ 20.7 µM)
2 µg/mL (≈ 5.31 µM) | 2 µg/mL (≈ 5.31 µM) | 16 µg/mL (≈ 42.5 µM) | 8 µg/mL (≈ 21.3 µM) | 16 µg/mL (≈ 42.5 µM) | 4 µg/mL (≈ 10.6 µM) | 1 µg/mL (≈ 2.66 µM) | 2 µg/mL (≈ 5.31 µM) | 2 µg/mL (≈ 5.31 µM) | 2 µg/mL (≈ 5.31 µM) | 2 µg/mL (≈ 5.31 µM) | 2 µg/mL (≈ 5.31 µM) | [H]/N=C(\N)NN=C1CCCc2cc(OCc3ccc(C(F)(F)F)cc3)ccc21 [Compound 1J, (E)-2-(6-((4-(trifluoromethyl)benzyl)oxy)-3,4-dihydronaphthalen-1(2H)-ylidene)hydrazine-1-carboximidamide] | 4 µg/mL (≈ 10.6 µM) | 16 µg/mL (≈ 42.5 µM) | 8 µg/mL (≈ 21.3 µM) | 32 µg/mL (≈ 85 µM) | 2 µg/mL (≈ 5.31 µM) | 16 µg/mL (≈ 42.5 µM) | 4 µg/mL (≈ 10.6 µM) | 2 µg/mL (≈ 5.31 µM) | MBC [1]: 32 µg/mL (≈ 85 µM); MBC (A. baumannii ATCC 19606): 8 µg/mL (≈ 21.3 µM); MBC (P. aeruginosa ATCC 27853): > 32 µg/mL; MBC (E. coli ATCC 25922): 4 µg/mL (≈ 10.6 µM)
